The values that follow come from patent US20240058373A1, “FIBRE MIXTURE FOR YOUNG CHILDREN” (N.V. Nutricia, priority 2020, published 2024).

This assay has as its system standard human gut microbiota pool. Put plainly: i-screen fermentation of fibres by faecal microbiota: pH and SCFA/BCFA formation. In kind it is cell-based. The settings on record: after 24 h of fermentation in SIEM medium at 37° C., fibres 10 mg/ml. The text has this: For studying fermentation of fibres by microbiota the i-screen platform was used, see Schuren et al., The i-screen: A Versatile Preclinical Platform for Gut Microbiota Studies, J Prob Health 2019 7:212. A standard human gut microbiota pool was used for the fermentation. This pool was established via fecal donations from 6 healthy volunteers (Caucasian individuals, age 25-60 years, no antibiotic use in the 3 months preceding the donation, self-assessment of health status). Before starting the i-screen fermentation with the test compounds, the standardized fecal pool was incubated in SIEM (standard ileal effluent medium) under anaerobic conditions overnight (37° C.; 300 rpm) in order to activate the bacteria.
The fibres were tested at a concentration of 10 mg/ml. All compounds were tested in triplicate.
The following conditions were applied: • 1 No added fibres, SIEM medium only • 2 Mixture of beta-galactooligosaccharides (Vivinal GOS, Friesland Campina), inulin (Orafti HP (Beneo-Orafti Orey) Beneo BE), resistant starch (Novelose 330 (Ingredion UK Ltd) and non-soluble soy polysaccharides, source Fibrim 2000 (DuPont/Danisco) in a weight ratio of 38:38:4:20, prior art MF4 • 3 Mixture of beta-galactooligosaccharides (Vivinal GOS, Friesland Campina), inulin (Orafti HP (Beneo-Orafti Orey) Beneo BE), resistant starch (Novelose 330 (Ingredion UK Ltd) and soluble soy polysaccharides, source Soyafibe-S-Ca100 (Fuji Oil Co, Ltd), in a weight ratio of 38:38:4:20, new MF4 • 4 Lactulose (Duphalac Lactulose, Solvay, the Netherlands)
After 24 hours of fermentation in SIEM medium at 37° C., samples were collected for pH measurements, DNA isolation and for metabolite analysis. The remaining material was stored at −20° C.
DNA was isolated as described by Ladirat et al. J Microbiol Meth 2013, 92(3), 387-397 with some minor adjustments: the samples were initially mixed with 300 μl lysis buffer (Agowa, Berlin, Germany), 500 μl zirconium beads (0.1 mm), and 500 μl phenol, before being introduced to a Bead Beater (BioSpec Products, Bartlesville, OK, USA) for 3 min. 16S amplicon sequencing DNA was analyzed by using 16S rDNA amplicon sequencing. The V4 hypervariable region was targeted. […] Amplicon quality and size were analyzed on a Fragment Analyzer (Advanced Analytical Technologies, Inc.). […] SCFA covering acetate, propionate, and n-butyrate and branched chain fatty acids (BCFA) covering iso-butyrate and iso-valerate were analyzed as described by as described by Van Nuenen Microbiology in Health and Disease 2003, 15: 137-144. […]
For the analysis of total lactate, material resulting from the i-screen fermentation was sampled and centrifuged at 4,000 g for 5 minutes. […] The D- and L-lactate were determined by the Arena 20XL analyser. […]

On to `OC[C@H]1O[C@@H](O[C@@H]2[C@@H](CO)OC(O)(CO)[C@H]2O)[C@H](O)[C@@H](O)[C@H]1O` (mixture of isomers) [lactulose, Lactulose], for which the “Mean Butyrate” value was 49.39 mM and the “Mean Propionate” value stood at 6.61 mM. Further, for the setting “value (s.d.)”, the “Mean Acetate” value is reported as 44.93 (1.40) mM and the “Mean Total SCFA” value is listed as 100.9 (2.67) mM.
